Test results from ChEMBL document CHEMBL4428063, “Novel Pyrimidine Toll-like Receptor 7 and 8 Dual Agonists to Treat Hepatitis B Virus” (J Med Chem, 2016).
Active and inactive are the calls of the source. No cut-off for these calls is given here.

How the values were obtained:
[1] = Intrinsic clearance in cynomolgus monkey liver microsomes assessed per mg protein at 1 uM measured after 60 mins; type: ADME, Macaca fascicularis, Microsome; conditions: read-out: CLH
[2] = target: T1, Toll-like receptor 6 (Homo sapiens) (UniProt Q9Y2C9); assay: Agonist activity at wild-type human TLR6 expressed in HEK293 cells up to 25 uM measured after 6 hrs by NF-kappaB luciferase reporter gene assay; type: cell-based
T1 sequence (whole entry): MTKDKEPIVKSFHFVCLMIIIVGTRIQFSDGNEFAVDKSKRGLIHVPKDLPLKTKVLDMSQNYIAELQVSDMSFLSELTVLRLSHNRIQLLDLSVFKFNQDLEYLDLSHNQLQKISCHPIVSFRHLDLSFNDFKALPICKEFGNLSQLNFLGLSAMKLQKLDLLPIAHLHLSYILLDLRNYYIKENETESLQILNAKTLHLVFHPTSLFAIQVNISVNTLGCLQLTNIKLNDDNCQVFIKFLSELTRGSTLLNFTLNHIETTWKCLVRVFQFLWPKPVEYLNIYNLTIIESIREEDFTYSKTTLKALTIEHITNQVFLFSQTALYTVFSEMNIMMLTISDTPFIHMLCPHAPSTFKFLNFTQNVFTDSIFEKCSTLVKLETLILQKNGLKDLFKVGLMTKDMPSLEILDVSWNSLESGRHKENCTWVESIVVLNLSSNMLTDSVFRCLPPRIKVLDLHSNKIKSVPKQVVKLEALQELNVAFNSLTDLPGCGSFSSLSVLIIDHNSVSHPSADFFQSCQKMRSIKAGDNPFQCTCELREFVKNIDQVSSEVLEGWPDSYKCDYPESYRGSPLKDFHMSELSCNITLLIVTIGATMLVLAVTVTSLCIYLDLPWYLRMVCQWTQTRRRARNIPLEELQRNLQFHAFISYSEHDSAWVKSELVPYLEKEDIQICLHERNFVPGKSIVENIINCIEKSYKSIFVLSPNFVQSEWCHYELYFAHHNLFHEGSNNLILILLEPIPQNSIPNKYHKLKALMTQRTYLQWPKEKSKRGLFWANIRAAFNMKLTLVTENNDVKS

[3] = Tmax in cynomolgus monkey plasma at 9 mg/kg, administered through oral gavage measured after 24 hrs; type: ADME, organism-based, Macaca fascicularis
[4] = Tmax in cynomolgus monkey plasma at 3 mg/kg, administered through oral gavage measured after 24 hrs; type: ADME, organism-based, Macaca fascicularis
[5] = Intrinsic clearance in C57Bl/6 mouse liver microsomes assessed per mg protein at 1 uM measured after 60 mins; type: ADME, Microsome; conditions: read-out: CLH
[6] = AUC(0 to last) in cynomolgus monkey plasma at 9 mg/kg, administered through oral gavage measured after 24 hrs; type: ADME, organism-based, Macaca fascicularis; design: dose 9 mg/kg, route oral, time 0 - last
HepG2 = assay: Cytotoxicity against human HepG2 cells measured after 72 hrs by multiplex end point analysis; type: cell-based; conditions: hepg2, 72 h
[7] = Intrinsic clearance in cynomolgus monkey hepatocytes at 1 uM measured after 120 mins; type: ADME, cell-based, Macaca fascicularis, Hepatocyte; conditions: 2 h

With CCCC[C@@H](CCO)Nc1nc(N)ncc1OC the microsomal CLint at 1 µM [1] was 8 µL/min/mg, the Activity [2] was “inactive” and the Tmax [3] was 0.5 to 2 h. For the same compound, the Tmax [4] was 1 h, the microsomal CLint at 1 µM [5] was 5 µL/min/mg and the AUC(0-t) at 24 h [6] was 72 ng·h/mL. For the same compound, the EC20 (HepG2) was > 86 µM and the CLH [7] was 103 µL/min.
